Assay results taken from ChEMBL document CHEMBL5360672, “Identification of Novel Dual-Target Estrogen Receptor α Degraders with Tubulin Inhibitory Activity for the Treatment of Endocrine-Resistant Breast Cancer” (J Med Chem, 2023).
The source made the active and inactive calls. The calls are words filed in the database; no cut-off is given here.

Tests used:
[1] = biological target: T1, Estrogen receptor (Homo sapiens) (UniProt P03372); assay: Binding affinity to human ERalpha assessed as relative binding affinity incubated under vibration for 1 min followed by 2 hrs incubation under dark condition by fluorescence polarization assay relative to estradiol; details: time 121.0 min
T1 sequence (whole entry): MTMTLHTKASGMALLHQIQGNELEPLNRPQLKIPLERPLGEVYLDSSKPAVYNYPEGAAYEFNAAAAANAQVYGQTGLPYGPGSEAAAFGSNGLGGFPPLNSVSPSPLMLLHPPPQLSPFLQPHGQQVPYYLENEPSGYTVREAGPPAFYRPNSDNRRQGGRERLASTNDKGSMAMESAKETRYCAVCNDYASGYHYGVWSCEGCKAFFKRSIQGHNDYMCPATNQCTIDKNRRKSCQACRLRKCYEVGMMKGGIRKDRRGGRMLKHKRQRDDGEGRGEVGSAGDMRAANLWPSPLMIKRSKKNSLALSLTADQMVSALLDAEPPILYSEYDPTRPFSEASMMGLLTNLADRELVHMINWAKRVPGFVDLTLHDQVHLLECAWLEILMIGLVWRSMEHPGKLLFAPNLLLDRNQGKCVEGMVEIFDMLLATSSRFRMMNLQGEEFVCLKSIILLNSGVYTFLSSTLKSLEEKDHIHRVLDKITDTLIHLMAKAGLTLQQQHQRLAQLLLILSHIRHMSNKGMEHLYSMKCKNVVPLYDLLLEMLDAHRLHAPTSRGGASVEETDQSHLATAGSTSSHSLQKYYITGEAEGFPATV

MCF7 [2] = assay: Antiproliferative activity against ERalpha positive human MCF7 cells assessed as inhibition of cell proliferation incubated for 72 hrs by CCK8 assay; type: functional, cell-based; details: MCF7, 72 h
T47D [3] = assay: Antiproliferative activity against ERalpha positive human T47D cells assessed as inhibition of cell proliferation incubated for 72 hrs by CCK8 assay; type: functional, cell-based
[4] = Cytotoxicity against human MCF-10A cells assessed as inhibition of cell proliferation incubated for 72 hrs by CCK8 assay; type: toxicity, cell-based
[5] = Antiproliferative activity against human Tamoxifen-resistant LCC2 cells assessed as inhibition of cell proliferation incubated for 72 hrs by CCK8 assay; type: functional, cell-based
T47D [6] = assay: Antiproliferative activity against human T47D cells harboring ERalpha Y537S mutant assessed as inhibition of cell proliferation incubated for 72 hrs by CCK8 assay; type: functional, cell-based
MDA-MB-231 = assay: Antiproliferative activity against ERalpha negative human MDA-MB-231 cells assessed as inhibition of cell proliferation incubated for 72 hrs by CCK8 assay; type: functional, cell-based; details: MDA-MB-231, 72 h
Estrogen receptor = biological target: T2, Estrogen receptor (Homo sapiens, UniProt P03372); assay: Antagonist activity at ERalpha (unknown origin) expressed in HEK293T cells co-expressing ERbeta and ERE-luciferase reporter assessed as reduction in relative light unit incubated for 24 hrs by dual-luciferase reporter assay; type: cell-based
T2 sequence (P03372 whole entry): T1 sequence (whole entry)

[7] = biological target: T1, Estrogen receptor (Homo sapiens); assay: Induction of ERalpha degradation in human MCF7 cells at 5 uM incubated for 24 hrs by Western blot analysis; type: cell-based
[8] = biological target: T1, Estrogen receptor (Homo sapiens); assay: Induction of ERalpha degradation in human MCF7 cells incubated for 6 to 24 hrs by Western blot analysis; type: cell-based; details: dose 0.5-5 µM, time 6-24 hrs
[9] = biological target: T1, Estrogen receptor (Homo sapiens); assay: Induction of ERalpha degradation in human MCF7 cells at 1 uM incubated for 6 to 24 hrs by Western blot analysis; type: cell-based; details: time 6-24 hrs
[10] = biological target: T1, Estrogen receptor (Homo sapiens); assay: Induction of ERalpha degradation in human MCF7 cells at 5 uM incubated for 24 hrs in the presence of MG-132 by Western blot analysis; type: cell-based
[11] = system: Estrogen receptor (Homo sapiens), P03372 [D538G]; assay: Induction of ERalpha degradation in human T47D cells harboring ERalpha D538G mutant at 0.5 to 5 uM incubated for 24 hrs by Western blot analysis; type: cell-based; details: dose 0.5-5 µM
Estrogen receptor (Homo sapiens), P03372 [D538G], sequence (P03372 whole entry D538G): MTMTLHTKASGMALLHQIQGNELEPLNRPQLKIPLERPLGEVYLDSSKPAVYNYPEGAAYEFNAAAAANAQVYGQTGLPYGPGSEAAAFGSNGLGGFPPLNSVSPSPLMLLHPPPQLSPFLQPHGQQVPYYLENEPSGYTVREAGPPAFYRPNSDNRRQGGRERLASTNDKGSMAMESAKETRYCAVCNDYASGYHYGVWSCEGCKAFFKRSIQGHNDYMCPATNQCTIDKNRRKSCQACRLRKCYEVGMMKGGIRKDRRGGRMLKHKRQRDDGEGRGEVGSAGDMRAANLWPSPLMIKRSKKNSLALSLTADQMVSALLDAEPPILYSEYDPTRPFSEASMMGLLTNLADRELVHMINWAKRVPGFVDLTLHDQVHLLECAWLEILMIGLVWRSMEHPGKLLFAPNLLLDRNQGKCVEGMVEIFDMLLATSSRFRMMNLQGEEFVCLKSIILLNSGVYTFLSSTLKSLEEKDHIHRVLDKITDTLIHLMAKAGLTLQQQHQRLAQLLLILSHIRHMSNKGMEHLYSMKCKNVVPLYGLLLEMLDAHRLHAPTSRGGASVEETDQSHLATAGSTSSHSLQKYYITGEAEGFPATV

[12] = biological target: T1, Estrogen receptor (Homo sapiens); assay: Induction of ERalpha degradation in human Tamoxifen-resistant LCC2 cells at 0.5 to 5 uM incubated for 6 to 24 hrs by Western blot analysis; type: cell-based; details: Tamoxifen-resistant LCC2 cell, dose 0.5-5 µM, time 6-24 hrs
Tubulin (Homo sapiens) [13] = biological target: T3, Tubulin (Homo sapiens) (UniProt P68371+Q9H4B7+P0DPH7+P68366+Q13509+Q71U36+P04350+Q3ZCM7+P07437+P68363+Q9BQE3+Q6PEY2+Q13885+Q9BVA1+Q9BUF5); assay: Inhibition of tubulin polymerization (unknown origin) at 30 uM incubated for 60 mins by microplate reader analysis; type: protein-complex assay
Tubulin (Homo sapiens) [14] = biological target: T3, Tubulin (Homo sapiens); assay: Disruption of microtubule network in human MCF7 cells assessed as chaotic microtubule network at 2 uM incubated for 48 hrs by DAPI staining based confocal laser scanning microscopic analysis; type: cell-based
Tubulin (Homo sapiens) [15] = biological target: T3, Tubulin (Homo sapiens); assay: Disruption of microtubule network in human LCC2 cells assessed as chaotic microtubule network at 4 uM incubated for 48 hrs by DAPI staining based confocal laser scanning microscopic analysis; type: cell-based
MCF7 [16] = assay: Induction of cell cycle arrest in human MCF7 cells assessed as increase in G2/M phase cells at 0 to 8 uM incubated for 48 hrs by flow cytometry analysis (reference value: 20.10%); type: functional; details: dose 0-8 µM
MCF7 [17] = assay: Antitumor activity against human MCF7 cells xenografted in Balb/c nude mouse assessed as reduction in Ki67 positive cells at 2 to 4 mg/kg, ip administered every other day for 20 days by immunohistochemistry analysis; type: functional, organism-based; details: dose 2-4 mg/kg, time 20.0 day
Mus musculus [18] = assay: In vivo induction of ERalpha degradation in BALB/c nude mouse xenografted with human MCF7 cells assessed as decrease in ERalpha expression in tumor at 2 to 4 mg/kg, ip administered every other day for 20 days by Western blot analysis; type: functional, organism-based; details: dose 2-4 mg/kg, time 20.0 day
[19] = Toxicity in Balb/c nude mouse xenografted with human MCF7 cells assessed as effect on liver morphology at 2 to 4 mg/kg, ip administered every other day for 20 days by H&E staining based analysis; type: organism-based; details: in vivo, 480 h, dose 2-4 mg/kg, time 20 day
MCF7 [20] = assay: Antitumor activity against human MCF7 cells xenografted in Balb/c nude mouse assessed as tumor growth inhibition at 2 mg/kg, ip administered every other day for 20 days relative to control; type: functional; details: MCF7, 480 h, time 20 day, read-out: TGI
MCF7 [21] = assay: Antitumor activity against human MCF7 cells xenografted in Balb/c nude mouse assessed as tumor growth inhibition at 4 mg/kg, ip administered every other day for 20 days relative to control; type: functional; details: MCF7, 480 h, time 20 day, read-out: TGI
[22] = Antitumor activity against human Tamoxifen-resistant LCC2 cells xenografted in Balb/c nude mouse assessed as tumor growth inhibition at 2 mg/kg, ip administered every other day for 20 days relative to control; type: functional; details: Tamoxifen-resistant LCC2 cell, 480 h, time 20 day, read-out: TGI
Mus musculus [23] = assay: In vivo induction of ERalpha degradation in BALB/c nude mouse xenografted with human tamoxifen-resistant LCC2 cells assessed as decrease in ERalpha expression in tumor at 2 mg/kg, ip administered every other day for 20 days by Western blot analysis; type: functional, organism-based; details: time 20.0 day
[24] = system: Tamoxifen-resistant LCC2 cell; assay: Antitumor activity against human Tamoxifen-resistant LCC2 cells xenografted in Balb/c nude mouse assessed as reduction in Ki67 positive cells at 2 mg/kg, ip administered every other day for 20 days by immunohistochemistry analysis; type: functional, organism-based; details: time 20.0 day

RBA [1]: 8.57%
IC50 (MCF7 [2]): 60 nM
IC50 (T47D [3]): 2560 nM
IC50 (T47D [6]): 1370 nM
IC50 (MDA-MB-231): 3750 nM
IC50 (Estrogen receptor): 56 nM
Activity [7]: Active
Activity [8]: Dose-Dependent Effect
Activity [9]: Active
Activity [10]: inactive
Activity [11]: Active
Activity [12]: Active
tubulin polymerization inhibition (active/not active) (Tubulin (Homo sapiens) [13]): Active
Activity (Tubulin (Homo sapiens) [14]): Active
Activity (Tubulin (Homo sapiens) [15]): Active
SMILES: N#C[Se]CCCCCC(=O)Nc1ccc(C2=C(c3ccc(O)cc3)C3CC(S(=O)(=O)N(CC(F)(F)F)c4ccccc4F)C2O3)cc1 (stereo unspecified)
IC50 at 72 h [4]: 15800 nM
IC50 [5]: 1590 nM
Activity (MCF7 [16]): 40.88%
Activity (MCF7 [17]): Active
Activity (Mus musculus [18]): Active
Activity [19]: Non-Toxic
inhibition in vivo at 2 mg/kg (MCF7 [20]): 74.6%
inhibition in vivo at 4 mg/kg (MCF7 [21]): 77.7%
inhibition in vivo at 2 mg/kg [22]: 51.4%
Activity (Mus musculus [23]): Active
Activity [24]: Active
